Assays:
[1] = target: Nociceptin receptor (Homo sapiens) (UniProt P41146); assay: Orphanin ORL1 Eurofins-Panlabs radioligand binding assay; details: Compound concentration 10.0 uM
[2] = target: T1, Ephrin type-A receptor 3 (Homo sapiens) (UniProt P29320); assay: EPHA3 Kinase screen; details: Compound concentration 1.0 uM
T1 sequence (whole entry): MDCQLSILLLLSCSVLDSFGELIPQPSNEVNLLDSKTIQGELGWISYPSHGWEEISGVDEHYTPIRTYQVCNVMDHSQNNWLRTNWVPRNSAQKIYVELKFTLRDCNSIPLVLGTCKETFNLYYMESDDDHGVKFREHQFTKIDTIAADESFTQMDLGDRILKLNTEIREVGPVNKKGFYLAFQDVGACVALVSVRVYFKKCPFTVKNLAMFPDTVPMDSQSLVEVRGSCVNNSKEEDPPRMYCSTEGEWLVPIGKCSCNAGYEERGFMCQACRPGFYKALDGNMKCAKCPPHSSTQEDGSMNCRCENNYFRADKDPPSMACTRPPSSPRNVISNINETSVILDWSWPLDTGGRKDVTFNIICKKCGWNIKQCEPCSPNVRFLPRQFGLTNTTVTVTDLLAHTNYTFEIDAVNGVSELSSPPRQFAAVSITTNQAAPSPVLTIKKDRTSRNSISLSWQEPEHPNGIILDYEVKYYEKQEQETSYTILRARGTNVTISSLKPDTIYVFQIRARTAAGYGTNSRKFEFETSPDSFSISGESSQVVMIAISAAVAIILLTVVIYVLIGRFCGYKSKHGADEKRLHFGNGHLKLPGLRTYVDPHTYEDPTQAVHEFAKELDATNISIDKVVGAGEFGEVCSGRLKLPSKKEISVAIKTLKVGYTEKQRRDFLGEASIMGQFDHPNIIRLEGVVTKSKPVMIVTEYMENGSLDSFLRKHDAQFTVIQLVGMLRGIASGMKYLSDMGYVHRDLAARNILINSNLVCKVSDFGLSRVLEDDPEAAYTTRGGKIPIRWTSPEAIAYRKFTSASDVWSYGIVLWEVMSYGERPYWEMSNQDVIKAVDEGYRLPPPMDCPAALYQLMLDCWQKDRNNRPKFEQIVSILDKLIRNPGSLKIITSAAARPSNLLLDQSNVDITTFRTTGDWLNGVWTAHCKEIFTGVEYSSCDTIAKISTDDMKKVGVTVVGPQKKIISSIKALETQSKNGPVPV

[3] = target: Casein kinase I isoform alpha (Homo sapiens) (UniProt P48729); assay: CSNK1A1 (CK1 alpha 1) Kinase screen; details: Compound concentration 1.0 uM
[4] = target: Serine/threonine-protein kinase MARK1 (Homo sapiens) (UniProt Q9P0L2); assay: MARK1 (MARK) Kinase screen; details: Compound concentration 1.0 uM
[5] = target: Dual specificity protein kinase CLK4 (Homo sapiens) (UniProt Q9HAZ1); assay: CLK4 Kinase screen; details: Compound concentration 1.0 uM
[6] = target: Receptor-type tyrosine-protein kinase FLT3 (Homo sapiens) (UniProt P36888); assay: FLT3 Kinase screen; details: Compound concentration 1.0 uM
[7] = target: MAP kinase-activated protein kinase 3 (Homo sapiens) (UniProt Q16644); assay: MAPKAPK3 Kinase screen; details: Compound concentration 1.0 uM
[8] = target: T2, Serine/threonine-protein kinase NLK (Homo sapiens) (UniProt Q9UBE8); assay: NLK Kinase screen; details: Compound concentration 1.0 uM
T2 sequence (whole entry): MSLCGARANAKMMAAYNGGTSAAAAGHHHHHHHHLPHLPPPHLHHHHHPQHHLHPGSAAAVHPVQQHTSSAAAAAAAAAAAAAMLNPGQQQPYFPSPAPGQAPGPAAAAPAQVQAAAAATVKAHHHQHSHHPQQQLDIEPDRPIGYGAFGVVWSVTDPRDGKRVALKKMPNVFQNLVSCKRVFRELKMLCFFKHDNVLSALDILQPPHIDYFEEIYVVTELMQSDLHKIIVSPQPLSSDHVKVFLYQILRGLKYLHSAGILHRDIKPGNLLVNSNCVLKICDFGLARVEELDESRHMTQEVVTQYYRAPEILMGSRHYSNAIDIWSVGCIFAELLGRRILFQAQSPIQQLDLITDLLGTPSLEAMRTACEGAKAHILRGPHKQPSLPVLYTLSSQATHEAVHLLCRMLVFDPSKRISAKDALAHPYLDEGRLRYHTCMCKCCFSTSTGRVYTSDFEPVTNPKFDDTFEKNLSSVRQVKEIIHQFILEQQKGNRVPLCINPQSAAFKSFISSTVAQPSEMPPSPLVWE

[9] = target: Serine/threonine-protein kinase MRCK alpha (Homo sapiens) (UniProt Q5VT25); assay: CDC42 BPA (MRCKA) Kinase screen; details: Compound concentration 1.0 uM
[10] = tested on: Epidermal growth factor receptor (Homo sapiens), P00533 [L858R,T790M]; assay: EGFR (ErbB1) T790M L858R Kinase screen; details: Compound concentration 1.0 uM
[11] = target: Neurotensin receptor type 1 (Homo sapiens) (UniProt P30989); assay: Neurotensin NT1 Eurofins-Panlabs radioligand binding assay; parameters: ligand concentration 0.02 nM, non-specific ligand with concentration 1 µM Neurotensin, incubation time 45 min, incubation temperature 25 °C; details: Compound concentration 10.0 uM
[12] = target: Mitogen-activated protein kinase 1 (Homo sapiens) (UniProt P28482); assay: MAPK1 (ERK2) Kinase screen; details: Compound concentration 1.0 uM
[13] = target: T3, NUAK family SNF1-like kinase 1 (Homo sapiens) (UniProt O60285); assay: NUAK1 (ARK5) Kinase screen; details: Compound concentration 1.0 uM
T3 sequence (whole entry): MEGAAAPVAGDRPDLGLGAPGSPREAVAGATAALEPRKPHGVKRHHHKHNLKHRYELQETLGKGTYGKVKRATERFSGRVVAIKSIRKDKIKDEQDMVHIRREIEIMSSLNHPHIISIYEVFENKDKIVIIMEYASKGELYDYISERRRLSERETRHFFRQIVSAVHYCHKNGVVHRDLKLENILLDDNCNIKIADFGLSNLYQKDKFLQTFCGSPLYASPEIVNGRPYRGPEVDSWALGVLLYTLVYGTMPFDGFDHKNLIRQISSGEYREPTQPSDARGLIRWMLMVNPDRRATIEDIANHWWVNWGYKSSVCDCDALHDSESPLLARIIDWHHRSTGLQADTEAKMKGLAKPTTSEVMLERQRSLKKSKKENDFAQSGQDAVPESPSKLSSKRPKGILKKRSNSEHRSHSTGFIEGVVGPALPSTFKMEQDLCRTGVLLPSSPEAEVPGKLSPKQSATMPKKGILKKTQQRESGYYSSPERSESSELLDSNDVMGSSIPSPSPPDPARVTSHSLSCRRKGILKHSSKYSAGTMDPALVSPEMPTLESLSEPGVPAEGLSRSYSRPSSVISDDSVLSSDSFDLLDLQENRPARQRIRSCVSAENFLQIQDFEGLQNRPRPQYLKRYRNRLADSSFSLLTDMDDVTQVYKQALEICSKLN

[14] = target: Protein kinase C beta type (Homo sapiens) (UniProt P05771); assay: PRKCB1 (PKC beta I) Kinase screen; details: Compound concentration 1.0 uM
[15] = target: G protein-coupled receptor kinase 6 (Homo sapiens) (UniProt P43250); assay: GRK6 Kinase screen; details: Compound concentration 1.0 uM
[16] = target: Melanocyte-stimulating hormone receptor (Homo sapiens) (UniProt Q01726); assay: Melanocortin MC1 Eurofins-Panlabs radioligand binding assay; details: Compound concentration 10.0 uM
[17] = tested on: Epidermal growth factor receptor (Homo sapiens), P00533 [L861Q]; assay: EGFR (ErbB1) L861Q Kinase screen; details: Compound concentration 1.0 uM

Measured: inhibition

Chain of Casein kinase I isoform alpha (Homo sapiens) (P48729 2-337 limits assumed): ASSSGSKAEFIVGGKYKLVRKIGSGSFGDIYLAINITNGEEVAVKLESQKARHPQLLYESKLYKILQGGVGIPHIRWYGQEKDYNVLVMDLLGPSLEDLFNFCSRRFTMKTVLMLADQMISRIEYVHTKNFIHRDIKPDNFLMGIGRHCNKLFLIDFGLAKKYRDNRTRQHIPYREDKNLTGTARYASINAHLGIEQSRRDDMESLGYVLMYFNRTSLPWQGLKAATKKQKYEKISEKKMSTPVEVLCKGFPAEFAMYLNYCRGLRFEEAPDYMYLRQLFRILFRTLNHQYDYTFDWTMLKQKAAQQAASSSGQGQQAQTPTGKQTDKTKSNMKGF
Chain of Serine/threonine-protein kinase MRCK alpha (Homo sapiens) (Q5VT25 whole entry): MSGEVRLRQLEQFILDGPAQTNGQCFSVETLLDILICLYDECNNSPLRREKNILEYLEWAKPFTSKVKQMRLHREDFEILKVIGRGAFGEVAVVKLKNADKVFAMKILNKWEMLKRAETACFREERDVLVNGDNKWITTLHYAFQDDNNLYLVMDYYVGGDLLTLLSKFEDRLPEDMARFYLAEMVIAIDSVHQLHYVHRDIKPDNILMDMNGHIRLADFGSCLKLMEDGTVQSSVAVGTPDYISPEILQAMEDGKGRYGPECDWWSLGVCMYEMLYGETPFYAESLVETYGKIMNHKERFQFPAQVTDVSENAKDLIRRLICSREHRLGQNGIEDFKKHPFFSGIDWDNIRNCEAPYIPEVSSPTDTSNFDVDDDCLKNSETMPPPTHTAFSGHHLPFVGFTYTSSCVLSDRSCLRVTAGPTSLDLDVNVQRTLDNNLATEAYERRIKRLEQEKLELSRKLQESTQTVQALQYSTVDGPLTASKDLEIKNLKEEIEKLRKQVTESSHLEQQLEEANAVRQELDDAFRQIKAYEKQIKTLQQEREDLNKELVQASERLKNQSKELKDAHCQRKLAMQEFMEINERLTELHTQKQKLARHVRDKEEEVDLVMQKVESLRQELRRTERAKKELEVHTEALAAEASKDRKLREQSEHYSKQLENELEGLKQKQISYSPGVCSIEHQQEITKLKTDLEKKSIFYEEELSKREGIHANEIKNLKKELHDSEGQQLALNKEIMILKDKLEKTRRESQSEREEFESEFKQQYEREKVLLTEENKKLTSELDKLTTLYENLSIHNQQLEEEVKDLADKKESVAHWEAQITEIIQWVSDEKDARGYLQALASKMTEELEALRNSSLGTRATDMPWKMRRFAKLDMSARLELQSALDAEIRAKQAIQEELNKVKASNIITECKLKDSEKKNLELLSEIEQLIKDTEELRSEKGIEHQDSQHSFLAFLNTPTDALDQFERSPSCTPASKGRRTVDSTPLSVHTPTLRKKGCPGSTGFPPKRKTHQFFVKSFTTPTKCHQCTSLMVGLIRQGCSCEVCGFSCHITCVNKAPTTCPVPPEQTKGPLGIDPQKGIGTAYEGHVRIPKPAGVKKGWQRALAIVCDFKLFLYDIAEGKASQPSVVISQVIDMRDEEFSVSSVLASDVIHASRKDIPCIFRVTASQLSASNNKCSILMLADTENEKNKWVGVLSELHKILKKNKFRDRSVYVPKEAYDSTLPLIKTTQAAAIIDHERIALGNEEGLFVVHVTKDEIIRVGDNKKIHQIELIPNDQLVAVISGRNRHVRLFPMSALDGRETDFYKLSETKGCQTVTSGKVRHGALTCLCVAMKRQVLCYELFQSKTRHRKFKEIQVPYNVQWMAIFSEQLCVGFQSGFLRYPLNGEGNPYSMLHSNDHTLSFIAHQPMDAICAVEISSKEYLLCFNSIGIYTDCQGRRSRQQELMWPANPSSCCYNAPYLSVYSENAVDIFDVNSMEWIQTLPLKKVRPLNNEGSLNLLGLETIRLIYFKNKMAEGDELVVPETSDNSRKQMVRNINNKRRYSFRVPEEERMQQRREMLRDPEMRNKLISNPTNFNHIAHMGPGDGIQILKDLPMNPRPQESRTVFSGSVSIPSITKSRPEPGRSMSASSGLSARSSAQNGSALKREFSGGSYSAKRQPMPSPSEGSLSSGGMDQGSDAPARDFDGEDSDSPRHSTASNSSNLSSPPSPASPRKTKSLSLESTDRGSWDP
Chain of Neurotensin receptor type 1 (Homo sapiens) (P30989 whole entry): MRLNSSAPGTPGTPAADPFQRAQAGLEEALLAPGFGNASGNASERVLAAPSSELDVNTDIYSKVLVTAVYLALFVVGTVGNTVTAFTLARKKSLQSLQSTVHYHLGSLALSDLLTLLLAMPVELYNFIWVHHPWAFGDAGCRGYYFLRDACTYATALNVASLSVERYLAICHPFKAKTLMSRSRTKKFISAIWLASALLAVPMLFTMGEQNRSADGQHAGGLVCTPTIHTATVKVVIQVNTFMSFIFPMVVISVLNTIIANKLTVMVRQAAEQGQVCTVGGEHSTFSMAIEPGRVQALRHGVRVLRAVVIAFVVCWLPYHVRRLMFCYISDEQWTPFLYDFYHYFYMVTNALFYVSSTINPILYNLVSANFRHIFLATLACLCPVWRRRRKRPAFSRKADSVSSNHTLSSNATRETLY
Chain of Mitogen-activated protein kinase 1 (Homo sapiens) (P28482 whole entry): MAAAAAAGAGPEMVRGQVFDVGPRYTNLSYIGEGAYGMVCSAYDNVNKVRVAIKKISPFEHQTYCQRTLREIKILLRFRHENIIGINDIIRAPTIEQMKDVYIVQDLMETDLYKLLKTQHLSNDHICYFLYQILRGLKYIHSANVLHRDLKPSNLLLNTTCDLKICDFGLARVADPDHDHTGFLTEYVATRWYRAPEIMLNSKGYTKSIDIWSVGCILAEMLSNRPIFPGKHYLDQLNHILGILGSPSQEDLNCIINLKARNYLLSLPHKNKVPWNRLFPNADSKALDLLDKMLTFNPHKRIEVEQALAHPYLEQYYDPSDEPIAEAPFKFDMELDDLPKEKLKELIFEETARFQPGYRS
Chain of Receptor-type tyrosine-protein kinase FLT3 (Homo sapiens) (P36888 whole entry): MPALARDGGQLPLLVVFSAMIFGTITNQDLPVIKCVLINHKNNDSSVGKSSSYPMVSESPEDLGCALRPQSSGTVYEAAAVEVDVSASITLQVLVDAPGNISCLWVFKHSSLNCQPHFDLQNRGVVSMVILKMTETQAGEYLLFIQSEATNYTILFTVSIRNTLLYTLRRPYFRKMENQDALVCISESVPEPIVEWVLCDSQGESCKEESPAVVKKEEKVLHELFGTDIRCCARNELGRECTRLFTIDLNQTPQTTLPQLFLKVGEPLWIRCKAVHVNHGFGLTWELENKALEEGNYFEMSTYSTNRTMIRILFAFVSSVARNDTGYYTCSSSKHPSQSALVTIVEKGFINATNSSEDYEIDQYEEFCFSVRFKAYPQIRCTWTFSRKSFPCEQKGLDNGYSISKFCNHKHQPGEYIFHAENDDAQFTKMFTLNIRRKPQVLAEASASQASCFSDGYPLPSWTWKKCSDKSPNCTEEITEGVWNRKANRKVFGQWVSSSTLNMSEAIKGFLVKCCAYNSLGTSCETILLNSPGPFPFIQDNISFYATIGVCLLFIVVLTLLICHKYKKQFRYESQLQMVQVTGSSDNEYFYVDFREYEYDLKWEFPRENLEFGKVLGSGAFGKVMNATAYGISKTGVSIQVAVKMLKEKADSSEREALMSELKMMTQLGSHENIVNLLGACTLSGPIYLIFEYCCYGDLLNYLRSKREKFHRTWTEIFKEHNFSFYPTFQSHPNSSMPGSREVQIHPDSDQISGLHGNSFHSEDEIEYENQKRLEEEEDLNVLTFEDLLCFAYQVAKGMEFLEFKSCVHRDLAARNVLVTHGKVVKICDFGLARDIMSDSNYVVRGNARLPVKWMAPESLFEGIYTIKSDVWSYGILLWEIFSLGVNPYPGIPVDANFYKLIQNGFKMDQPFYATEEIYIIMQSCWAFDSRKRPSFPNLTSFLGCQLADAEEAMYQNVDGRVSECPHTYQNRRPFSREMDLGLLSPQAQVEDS
Chain of Epidermal growth factor receptor (Homo sapiens), P00533 [L861Q] (P00533 whole entry L861Q): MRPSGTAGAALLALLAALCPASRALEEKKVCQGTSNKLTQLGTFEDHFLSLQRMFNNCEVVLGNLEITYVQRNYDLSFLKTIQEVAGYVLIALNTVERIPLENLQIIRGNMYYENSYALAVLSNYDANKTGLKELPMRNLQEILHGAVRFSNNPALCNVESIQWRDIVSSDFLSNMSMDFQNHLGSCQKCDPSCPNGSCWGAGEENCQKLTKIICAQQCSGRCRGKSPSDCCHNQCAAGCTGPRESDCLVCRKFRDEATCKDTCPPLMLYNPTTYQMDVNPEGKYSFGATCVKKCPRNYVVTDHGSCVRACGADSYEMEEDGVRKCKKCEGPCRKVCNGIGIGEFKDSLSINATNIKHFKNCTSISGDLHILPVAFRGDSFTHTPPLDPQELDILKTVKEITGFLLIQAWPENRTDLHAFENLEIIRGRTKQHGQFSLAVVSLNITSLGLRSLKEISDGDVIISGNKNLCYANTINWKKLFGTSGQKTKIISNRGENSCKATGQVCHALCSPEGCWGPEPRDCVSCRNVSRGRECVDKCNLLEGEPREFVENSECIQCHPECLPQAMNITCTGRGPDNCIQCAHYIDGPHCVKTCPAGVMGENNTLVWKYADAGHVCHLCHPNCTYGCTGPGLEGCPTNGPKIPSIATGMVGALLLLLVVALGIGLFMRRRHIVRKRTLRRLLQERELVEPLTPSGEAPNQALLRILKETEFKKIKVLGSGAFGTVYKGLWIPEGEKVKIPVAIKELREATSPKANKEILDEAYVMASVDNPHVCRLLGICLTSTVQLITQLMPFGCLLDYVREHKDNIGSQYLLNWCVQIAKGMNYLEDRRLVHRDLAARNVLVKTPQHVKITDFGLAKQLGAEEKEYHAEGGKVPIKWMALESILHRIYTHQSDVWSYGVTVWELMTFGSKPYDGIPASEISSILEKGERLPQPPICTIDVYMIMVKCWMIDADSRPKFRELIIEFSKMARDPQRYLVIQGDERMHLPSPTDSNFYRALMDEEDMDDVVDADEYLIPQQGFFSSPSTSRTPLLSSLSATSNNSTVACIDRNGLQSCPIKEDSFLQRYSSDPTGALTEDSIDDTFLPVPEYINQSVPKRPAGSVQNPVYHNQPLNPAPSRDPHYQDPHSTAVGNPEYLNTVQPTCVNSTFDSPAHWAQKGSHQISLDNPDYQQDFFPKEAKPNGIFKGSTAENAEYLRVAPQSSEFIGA

C[C@@H]1CN(c2cc(-c3n[nH]c4ccc(OC5(C)CC5)cc34)ncn2)C[C@H](C)O1 [MLi-2]
inactive: [1] 7% | [2] -3.28% | [3] 1.89% | [4] 8.35% | [5] 80.1% | [6] 2.53% | [7] 3.73% | [8] 4.49% | [9] 2.46% | [10] 2.37% | [11] -2% | [12] -3.99% | [13] 14.5% | [14] -7.69% | [15] 6.63% | [16] -1% | [17] 9.16%
